Like-named read-outs stand apart in the source and are kept apart here.
How the values were obtained:
[1] = molecular target: T1, WT hDAT (Homo sapiens, UniProt Q01959); details: transiently singly transfected, observed, mean ± SE
[2] = system: WT + D313N hDAT (co-expressed); format: binding, human; details: transiently co-transfected 1:1, WT + D313N, observed
[3] = molecular target: T2, D436N hDAT (Homo sapiens, UniProt Q01959, D436N); experiment: [3H]CFT saturation binding, intact HEK-293 cells stably expressing D436N DAT; details: observed, mean ± SE
T2 sequence (Q01959 whole entry D436N): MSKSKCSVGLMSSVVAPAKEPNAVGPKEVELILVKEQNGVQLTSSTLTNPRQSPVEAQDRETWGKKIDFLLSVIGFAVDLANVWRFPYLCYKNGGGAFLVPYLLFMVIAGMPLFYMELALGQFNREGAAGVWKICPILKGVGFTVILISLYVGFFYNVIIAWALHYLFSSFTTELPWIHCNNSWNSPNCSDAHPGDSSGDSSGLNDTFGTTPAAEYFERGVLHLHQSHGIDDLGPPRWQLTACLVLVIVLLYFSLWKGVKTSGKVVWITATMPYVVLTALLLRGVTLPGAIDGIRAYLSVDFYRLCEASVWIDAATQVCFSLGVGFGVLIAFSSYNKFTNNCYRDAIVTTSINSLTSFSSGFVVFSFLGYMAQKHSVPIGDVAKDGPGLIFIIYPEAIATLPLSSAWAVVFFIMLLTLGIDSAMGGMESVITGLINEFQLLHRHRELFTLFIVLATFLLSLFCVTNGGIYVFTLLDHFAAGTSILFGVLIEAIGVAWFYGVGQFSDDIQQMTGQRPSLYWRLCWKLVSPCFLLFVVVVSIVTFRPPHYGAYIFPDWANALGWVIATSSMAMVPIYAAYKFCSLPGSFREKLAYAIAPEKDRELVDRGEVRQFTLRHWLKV

[4] = system: W84L + D345N hDAT (co-expressed); format: binding, human; details: transiently co-transfected 1:1, W84L + D345N, observed
[5] = system: WT + D436N hDAT (co-expressed); format: binding, human; details: transiently co-transfected 1:1, WT + D436N, observed
[6] = system: WT + D436N hDAT (mixed cells); format: binding, human; details: observed upon mixing stable cells in equal volumes
[7] = molecular target: T3, W84L hDAT (Homo sapiens, UniProt Q01959, W84L); details: stably expressing cells, observed, mean ± SE
T3 sequence (Q01959 1-620 W84L): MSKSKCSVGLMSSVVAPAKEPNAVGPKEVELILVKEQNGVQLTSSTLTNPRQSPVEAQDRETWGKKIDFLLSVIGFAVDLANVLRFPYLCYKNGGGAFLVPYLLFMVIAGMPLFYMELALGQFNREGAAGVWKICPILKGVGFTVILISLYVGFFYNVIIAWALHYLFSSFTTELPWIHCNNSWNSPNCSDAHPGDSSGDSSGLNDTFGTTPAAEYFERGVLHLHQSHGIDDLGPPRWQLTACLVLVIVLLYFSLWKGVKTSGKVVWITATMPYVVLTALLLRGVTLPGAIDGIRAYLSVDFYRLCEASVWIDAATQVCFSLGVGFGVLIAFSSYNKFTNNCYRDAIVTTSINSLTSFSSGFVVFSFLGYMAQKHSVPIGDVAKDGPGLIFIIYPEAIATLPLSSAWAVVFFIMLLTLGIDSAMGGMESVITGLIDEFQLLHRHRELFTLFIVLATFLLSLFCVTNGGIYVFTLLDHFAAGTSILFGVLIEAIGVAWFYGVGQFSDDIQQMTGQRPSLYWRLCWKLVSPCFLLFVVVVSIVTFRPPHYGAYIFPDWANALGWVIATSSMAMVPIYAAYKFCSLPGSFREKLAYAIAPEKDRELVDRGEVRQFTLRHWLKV

[8] = system: WT + W84L hDAT (co-expressed); format: binding, human; details: transiently co-transfected 1:1, WT + W84L, observed
[9] = molecular target: D313N hDAT (Homo sapiens, UniProt Q01959, D313N); experiment: [3H]CFT saturation binding, HEK-293 cells transiently transfected with D313N DAT; details: transiently singly transfected
Chain of D313N hDAT (Q01959 whole entry D313N): as the sequence (Q01959 whole entry D436N) above, with D313N, N436D counted along it

[10] = molecular target: T4, D345N hDAT (Homo sapiens, UniProt Q01959, D345N); experiment: [3H]CFT saturation binding, intact HEK-293 cells stably expressing D345N DAT; details: observed, mean ± SE
T4 sequence (Q01959 whole entry D345N): as the sequence (Q01959 whole entry D436N) above, with D345N, N436D counted along it

[11] = molecular target: T2, D436N hDAT; experiment: [3H]CFT saturation binding, HEK-293 cells transiently transfected with D436N DAT; details: transiently singly transfected
[12] = system: W84L + D345N hDAT (mixed cells); format: binding, human; details: observed upon mixing stable cells in equal volumes
[13] = system: WT + W84L hDAT (mixed cells); experiment: [3H]CFT saturation binding, mixed cells singly stably expressing WT and W84L DAT; parameters: species or system human; details: observed upon mixing stable cells in equal volumes
[14] = molecular target: T3, W84L hDAT; experiment: [3H]CFT saturation binding, HEK-293 cells transiently transfected with W84L DAT; details: transiently singly transfected
[15] = molecular target: T4, D345N hDAT; experiment: [3H]CFT saturation binding, HEK-293 cells transiently transfected with D345N DAT; details: transiently singly transfected
[16] = system: WT + D345N hDAT (co-expressed); format: binding, human; details: transiently co-transfected 1:1, WT + D345N, observed
[17] = molecular target: T1, WT hDAT; experiment: [3H]CFT saturation binding, intact HEK-293 cells stably expressing WT DAT; details: observed, mean ± SE
[18] = system: DAT; details: intact cells; ref Chen et al., 2004b; cited from earlier work

T1 sequence (Q01959 whole entry): as the sequence (Q01959 whole entry D436N) above, with N436D counted along it

SMILES | Bmax [1] | Kd [2] [nM] | Bmax [3] | Kd [4] [nM] | Kd [5] [nM] | Kd [6] [nM] | Bmax [7] | Kd [8] [nM] | Bmax [9] | Bmax [10] | Bmax [11] | Kd [12] [nM] | Kd [13] [nM] | Bmax ([14]; set paired with D345N (n=7)) | Bmax ([14]; set paired with WT (n=5)) | Bmax ([15]; set paired with W84L (n=6)) | Bmax ([15]; set paired with WT (n=4)) | Kd [16] [nM] | Bmax [17] | inhibition of intact cell [3H]CFT binding [18]
COC(=O)[C@H]1[C@@H](c2ccc(F)cc2)C[C@@H]2CC[C@H]1N2C [[^3H]CFT, (−)-2-β-carbomethoxy-3-β-(4-fluorophenyl)tropane] | 0.79 ± 0.21 (4) pmol/mg | 6.42 ± 1.1 | 0.50± 0.08 (4) pmol/mg | 6.75 ± 3.22 | 103 ± 5 | 25.9 ± 4 | 0.75 ± 0.16 (8) pmol/mg | 4.4 ± 0.77 | 0.41± 0.03 (4) pmol/mg | 0.57 ± 0.13 (4) pmol/mg | 0.94 ± 0.04 (3) pmol/mg | 2.01 ± 0.67 | 5.33 ± 0.95 | 0.94 ± 0.13 (7) pmol/mg | 0.82 ± 0.14 (5) pmol/mg | 0.51 ± 0.12 (6) pmol/mg | 0.62 ± 0.10 (4) pmol/mg | 48.2 ± 10.3 | 0.55 ± 0.03 (6) pmol/mg | 
C[n+]1ccc(-c2ccccc2)cc1 [MPP^+] |  |  |  |  |  |  |  |  |  |  |  |  |  |  |  |  |  |  |  | completely inhibited
